Earlier results, collected in publication PMC5377275 (ACS Omega, 2017).

Test system: cytosolic lysates

Row | Molecule | Effect of inhibitor on ubiquitination of KGSYGK(FAM)RRR | other results
1 | O=C(O)COc1ccc(Br)cc1/C=C1\SC(=S)N(Cc2cccnc2)C1=O [SKPin C1] | impaired | –
2 | O=C1c2ccccc2-c2nc3nonc3nc21 [SMER3] | impaired | –
3 | KGSYGK(FAM)RRR | – | Ubiquitination of p53/MDM2-based peptide in cytosolic lysates: readily ubiquitinated
4 | RRRG | – | Ubiquitination of primary degron in HeLa cell lysates (lysine residue positioned at the C-terminus): rapidly ubiquitinated
